Data taken from ChEMBL document CHEMBL5465560, “Selectivity Literature for EUbOPEN Chemogenomic Library” (2024).
Values belong to the molecule of their own block, whether it stands above or below them.

Tests used:
[1] = biological target: Ephrin type-A receptor 2 (Homo sapiens) (UniProt P29317); details: at 10 µM
[2] = biological target: Serine/threonine-protein kinase 10 (Homo sapiens) (UniProt O94804); details: at 10 µM
[3] = biological target: Glycogen synthase kinase-3 beta (Homo sapiens, UniProt P49841); experiment: Selectivity interaction (Kinase panel (literature)) EUB0001199aCl GSK3B; details: at 1 µM
[4] = biological target: Calcium/calmodulin-dependent protein kinase type 1G (Homo sapiens) (UniProt Q96NX5); experiment: Selectivity interaction (Kinase panel (DSF assay)) EUB0001558a CAMK1G
[5] = biological target: High affinity nerve growth factor receptor (Homo sapiens, UniProt P04629); experiment: Selectivity interaction (KinomeScan (DiscoverX)) EUB0000045b NTRK1
[6] = biological target: T1, Cyclin-dependent kinase 11A (Homo sapiens) (UniProt Q9UQ88); experiment: Selectivity interaction (KinomeScan (DiscoverX)) EUB0000595a CDK11A; details: at 10 µM
T1 sequence (whole entry): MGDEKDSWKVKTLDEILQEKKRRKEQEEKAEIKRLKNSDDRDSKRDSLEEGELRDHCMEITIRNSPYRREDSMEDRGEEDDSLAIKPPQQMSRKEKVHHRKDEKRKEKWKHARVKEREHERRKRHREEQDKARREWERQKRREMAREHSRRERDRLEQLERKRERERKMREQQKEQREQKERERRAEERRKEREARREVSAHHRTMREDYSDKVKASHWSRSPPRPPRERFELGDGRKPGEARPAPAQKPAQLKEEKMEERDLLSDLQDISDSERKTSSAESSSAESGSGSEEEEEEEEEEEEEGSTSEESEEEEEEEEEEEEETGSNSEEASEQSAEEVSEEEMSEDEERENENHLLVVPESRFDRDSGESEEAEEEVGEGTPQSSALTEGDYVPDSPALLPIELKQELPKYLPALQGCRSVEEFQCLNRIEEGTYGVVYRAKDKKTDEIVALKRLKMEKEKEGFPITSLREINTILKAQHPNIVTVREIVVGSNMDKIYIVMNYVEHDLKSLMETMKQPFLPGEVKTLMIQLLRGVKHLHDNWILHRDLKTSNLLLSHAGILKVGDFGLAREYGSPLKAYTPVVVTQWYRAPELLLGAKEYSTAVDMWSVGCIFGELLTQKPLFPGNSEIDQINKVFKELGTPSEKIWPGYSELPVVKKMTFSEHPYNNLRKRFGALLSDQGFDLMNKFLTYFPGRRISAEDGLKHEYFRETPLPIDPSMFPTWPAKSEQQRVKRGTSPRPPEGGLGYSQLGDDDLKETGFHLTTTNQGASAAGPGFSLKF

[7] = biological target: Serine/threonine-protein kinase Chk2 (Homo sapiens) (UniProt O96017); experiment: Selectivity interaction (ActivX KiNativ screen (kinase selectivity in THP-1 cell lysates)) EUB0000639a CHEK2; format: subcellular; details: lysate, at 5 µM
[8] = biological target: Serine/threonine-protein kinase PRP4 homolog (Homo sapiens) (UniProt Q13523); experiment: Selectivity interaction (ActivX KiNativ screen (kinase selectivity in THP-1 cell lysates)) EUB0000639a PRPF4; format: subcellular; details: lysate, at 0.01 µM
[9] = biological target: T2, Calcium/calmodulin-dependent protein kinase type IV (Homo sapiens) (UniProt Q16566); experiment: Selectivity interaction (KinomeScan (DiscoverX)) EUB0000229b CAMK4; details: at 10 µM
T2 sequence (whole entry): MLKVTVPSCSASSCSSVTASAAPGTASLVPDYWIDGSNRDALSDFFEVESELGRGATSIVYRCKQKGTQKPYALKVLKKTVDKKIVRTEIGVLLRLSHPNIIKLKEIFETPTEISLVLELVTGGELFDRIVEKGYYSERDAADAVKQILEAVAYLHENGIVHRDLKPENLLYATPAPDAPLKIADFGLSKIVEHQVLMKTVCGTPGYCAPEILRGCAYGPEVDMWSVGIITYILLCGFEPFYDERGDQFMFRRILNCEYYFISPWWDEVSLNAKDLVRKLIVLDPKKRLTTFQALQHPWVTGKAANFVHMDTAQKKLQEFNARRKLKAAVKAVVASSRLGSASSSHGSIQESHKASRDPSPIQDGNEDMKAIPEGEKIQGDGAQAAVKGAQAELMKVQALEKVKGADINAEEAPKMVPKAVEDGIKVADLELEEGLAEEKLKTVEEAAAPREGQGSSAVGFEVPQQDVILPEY

[10] = biological target: Calcium/calmodulin-dependent protein kinase kinase 1 (Homo sapiens) (UniProt Q8N5S9); experiment: Selectivity interaction (KinomeScan (DiscoverX)) EUB0000229b CAMKK1; details: at 10 µM
[11] = biological target: Cyclin-dependent kinase-like 1 (Homo sapiens) (UniProt Q00532); experiment: Selectivity interaction (KinomeScan (DiscoverX)) EUB0000229b CDKL1; details: at 10 µM
[12] = biological target: Receptor-interacting serine/threonine-protein kinase 2 (Homo sapiens, UniProt O43353); experiment: Selectivity interaction (KinomeScan (DiscoverX)) EUB0001049a RIPK2; details: at 1 µM
[13] = biological target: T3, Muscarinic acetylcholine receptor M1 (Homo sapiens) (UniProt P11229); experiment: Selectivity interaction (Panel of kinases, GPCRs, ion channels and transporters (enzymatic assay)) EUB0000223bCl CHRM1
T3 sequence (whole entry): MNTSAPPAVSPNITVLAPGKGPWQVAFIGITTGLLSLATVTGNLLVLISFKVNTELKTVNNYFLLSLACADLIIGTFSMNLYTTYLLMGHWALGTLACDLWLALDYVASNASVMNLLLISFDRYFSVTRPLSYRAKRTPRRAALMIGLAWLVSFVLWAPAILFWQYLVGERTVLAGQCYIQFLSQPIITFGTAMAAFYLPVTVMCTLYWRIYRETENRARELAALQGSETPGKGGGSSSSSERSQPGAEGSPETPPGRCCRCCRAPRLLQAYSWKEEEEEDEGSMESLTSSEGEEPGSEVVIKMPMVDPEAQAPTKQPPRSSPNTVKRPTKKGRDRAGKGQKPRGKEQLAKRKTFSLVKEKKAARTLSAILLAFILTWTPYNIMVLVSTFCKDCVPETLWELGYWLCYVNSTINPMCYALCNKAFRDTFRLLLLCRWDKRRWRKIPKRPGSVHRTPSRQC

[14] = biological target: Ribosomal protein S6 kinase alpha-2 (Homo sapiens) (UniProt Q15349); experiment: Selectivity interaction (KinomeScan (DiscoverX)) EUB0000666a RPS6KA2; details: at 10 µM
[15] = biological target: Proto-oncogene tyrosine-protein kinase Src (Homo sapiens, UniProt P12931); experiment: Selectivity interaction (KinomeScan (DiscoverX)) EUB0000666a SRC; details: at 10 µM
[16] = test system: Receptor-type tyrosine-protein kinase FLT3 (Homo sapiens), P36888 [UNDEFINED MUTATION]; experiment: Selectivity interaction (KinomeScan (DiscoverX)) EUB0000311b FLT3; details: at 1 µM
[17] = biological target: 4-aminobutyrate aminotransferase, mitochondrial (Homo sapiens, UniProt P80404); experiment: Selectivity interaction (GPCR panel (PDSP screen)) EUB0000311b ABAT; details: at 10 µM
Chain of 4-aminobutyrate aminotransferase, mitochondrial (P80404 whole entry): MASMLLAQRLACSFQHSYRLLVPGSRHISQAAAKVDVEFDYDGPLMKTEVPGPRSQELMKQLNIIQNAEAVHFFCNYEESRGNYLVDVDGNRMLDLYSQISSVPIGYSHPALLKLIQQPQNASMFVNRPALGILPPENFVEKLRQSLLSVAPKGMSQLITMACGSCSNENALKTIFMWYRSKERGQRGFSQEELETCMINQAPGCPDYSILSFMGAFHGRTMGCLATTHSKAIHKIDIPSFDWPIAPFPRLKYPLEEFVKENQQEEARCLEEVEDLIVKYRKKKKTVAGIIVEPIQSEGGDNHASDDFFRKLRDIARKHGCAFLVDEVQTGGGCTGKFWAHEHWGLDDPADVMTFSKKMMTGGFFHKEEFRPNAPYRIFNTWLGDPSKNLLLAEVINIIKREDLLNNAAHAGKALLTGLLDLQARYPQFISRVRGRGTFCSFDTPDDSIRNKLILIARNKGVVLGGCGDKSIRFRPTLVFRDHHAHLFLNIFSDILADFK

Chain of High affinity nerve growth factor receptor (P04629 33-796 limits assumed): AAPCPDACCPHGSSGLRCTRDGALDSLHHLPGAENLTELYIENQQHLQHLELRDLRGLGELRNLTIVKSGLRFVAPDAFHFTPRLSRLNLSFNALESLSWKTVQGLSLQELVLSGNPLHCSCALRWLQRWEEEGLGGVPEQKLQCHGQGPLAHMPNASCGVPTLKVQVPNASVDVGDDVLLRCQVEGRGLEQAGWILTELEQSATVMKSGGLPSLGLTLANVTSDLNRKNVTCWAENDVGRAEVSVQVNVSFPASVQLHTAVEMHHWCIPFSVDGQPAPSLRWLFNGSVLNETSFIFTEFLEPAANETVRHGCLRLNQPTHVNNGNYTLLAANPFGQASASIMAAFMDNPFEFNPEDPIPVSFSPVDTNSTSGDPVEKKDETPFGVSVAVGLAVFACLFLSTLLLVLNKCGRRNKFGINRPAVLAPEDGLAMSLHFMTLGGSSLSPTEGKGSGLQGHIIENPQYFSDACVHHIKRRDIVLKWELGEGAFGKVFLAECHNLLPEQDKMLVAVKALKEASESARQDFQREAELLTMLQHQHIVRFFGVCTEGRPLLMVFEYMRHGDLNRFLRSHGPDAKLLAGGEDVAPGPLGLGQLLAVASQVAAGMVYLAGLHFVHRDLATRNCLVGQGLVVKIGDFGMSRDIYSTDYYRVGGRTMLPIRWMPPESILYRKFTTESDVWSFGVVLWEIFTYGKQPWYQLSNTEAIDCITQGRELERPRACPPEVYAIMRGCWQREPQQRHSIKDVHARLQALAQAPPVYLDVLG
Chain of Proto-oncogene tyrosine-protein kinase Src (P12931 2-536 limits assumed): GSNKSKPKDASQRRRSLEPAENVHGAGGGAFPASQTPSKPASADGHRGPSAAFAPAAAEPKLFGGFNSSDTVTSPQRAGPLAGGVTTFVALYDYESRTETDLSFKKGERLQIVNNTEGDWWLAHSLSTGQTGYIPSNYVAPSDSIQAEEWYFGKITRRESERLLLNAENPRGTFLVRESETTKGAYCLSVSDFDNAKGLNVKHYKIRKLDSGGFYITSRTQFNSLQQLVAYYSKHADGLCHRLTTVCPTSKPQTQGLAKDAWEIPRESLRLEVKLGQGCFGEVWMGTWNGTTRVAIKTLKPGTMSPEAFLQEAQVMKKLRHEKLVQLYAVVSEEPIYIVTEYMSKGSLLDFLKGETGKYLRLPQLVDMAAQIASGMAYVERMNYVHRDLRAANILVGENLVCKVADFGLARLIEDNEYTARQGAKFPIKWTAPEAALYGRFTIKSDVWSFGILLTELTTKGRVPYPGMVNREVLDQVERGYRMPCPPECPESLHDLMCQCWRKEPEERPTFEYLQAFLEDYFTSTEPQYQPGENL
Chain of Ribosomal protein S6 kinase alpha-2 (Homo sapiens) (Q15349 whole entry): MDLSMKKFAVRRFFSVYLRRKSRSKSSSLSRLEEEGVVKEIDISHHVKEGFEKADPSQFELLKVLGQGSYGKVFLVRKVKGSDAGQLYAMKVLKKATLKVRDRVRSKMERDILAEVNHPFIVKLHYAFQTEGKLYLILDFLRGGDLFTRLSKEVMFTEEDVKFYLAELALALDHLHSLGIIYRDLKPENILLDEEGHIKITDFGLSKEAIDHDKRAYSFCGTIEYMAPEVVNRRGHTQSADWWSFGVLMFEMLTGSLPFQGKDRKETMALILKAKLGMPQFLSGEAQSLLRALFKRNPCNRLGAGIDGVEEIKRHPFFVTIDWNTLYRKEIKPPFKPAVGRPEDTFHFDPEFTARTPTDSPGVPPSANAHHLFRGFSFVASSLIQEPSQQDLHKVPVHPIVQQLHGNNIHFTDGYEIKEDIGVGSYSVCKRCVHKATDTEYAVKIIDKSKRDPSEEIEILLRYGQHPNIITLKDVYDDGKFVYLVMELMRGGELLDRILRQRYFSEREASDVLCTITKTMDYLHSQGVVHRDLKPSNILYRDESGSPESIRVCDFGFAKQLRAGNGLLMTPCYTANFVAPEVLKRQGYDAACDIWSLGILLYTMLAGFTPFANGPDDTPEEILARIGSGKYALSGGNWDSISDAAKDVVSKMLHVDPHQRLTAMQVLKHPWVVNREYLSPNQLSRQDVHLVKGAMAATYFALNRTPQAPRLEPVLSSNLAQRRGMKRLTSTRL
Chain of Ephrin type-A receptor 2 (Homo sapiens) (P29317 whole entry): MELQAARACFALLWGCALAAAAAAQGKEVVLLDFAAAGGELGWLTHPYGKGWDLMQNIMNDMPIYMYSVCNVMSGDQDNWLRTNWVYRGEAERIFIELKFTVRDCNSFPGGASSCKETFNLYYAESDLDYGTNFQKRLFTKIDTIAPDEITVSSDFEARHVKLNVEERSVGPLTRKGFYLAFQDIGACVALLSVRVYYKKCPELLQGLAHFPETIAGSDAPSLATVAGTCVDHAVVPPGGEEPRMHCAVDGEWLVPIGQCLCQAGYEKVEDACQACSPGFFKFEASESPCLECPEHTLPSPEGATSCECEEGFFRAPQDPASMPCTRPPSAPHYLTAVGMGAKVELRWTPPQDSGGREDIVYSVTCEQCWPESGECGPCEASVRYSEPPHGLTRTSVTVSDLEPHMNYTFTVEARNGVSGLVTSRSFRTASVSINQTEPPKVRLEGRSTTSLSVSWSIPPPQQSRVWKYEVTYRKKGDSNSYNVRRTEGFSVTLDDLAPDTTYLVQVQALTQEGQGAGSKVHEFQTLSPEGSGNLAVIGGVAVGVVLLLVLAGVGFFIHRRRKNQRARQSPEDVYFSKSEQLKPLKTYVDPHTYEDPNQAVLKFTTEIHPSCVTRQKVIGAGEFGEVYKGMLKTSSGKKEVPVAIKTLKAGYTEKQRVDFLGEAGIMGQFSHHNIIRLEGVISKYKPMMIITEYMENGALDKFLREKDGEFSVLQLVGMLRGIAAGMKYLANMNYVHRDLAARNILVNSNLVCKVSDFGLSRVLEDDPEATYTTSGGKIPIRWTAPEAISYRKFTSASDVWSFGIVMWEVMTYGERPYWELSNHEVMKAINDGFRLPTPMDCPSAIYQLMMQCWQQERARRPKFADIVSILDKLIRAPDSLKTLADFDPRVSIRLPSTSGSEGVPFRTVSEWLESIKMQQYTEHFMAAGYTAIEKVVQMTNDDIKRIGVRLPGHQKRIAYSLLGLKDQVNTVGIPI
Chain of Serine/threonine-protein kinase 10 (Homo sapiens) (O94804 whole entry, looked up): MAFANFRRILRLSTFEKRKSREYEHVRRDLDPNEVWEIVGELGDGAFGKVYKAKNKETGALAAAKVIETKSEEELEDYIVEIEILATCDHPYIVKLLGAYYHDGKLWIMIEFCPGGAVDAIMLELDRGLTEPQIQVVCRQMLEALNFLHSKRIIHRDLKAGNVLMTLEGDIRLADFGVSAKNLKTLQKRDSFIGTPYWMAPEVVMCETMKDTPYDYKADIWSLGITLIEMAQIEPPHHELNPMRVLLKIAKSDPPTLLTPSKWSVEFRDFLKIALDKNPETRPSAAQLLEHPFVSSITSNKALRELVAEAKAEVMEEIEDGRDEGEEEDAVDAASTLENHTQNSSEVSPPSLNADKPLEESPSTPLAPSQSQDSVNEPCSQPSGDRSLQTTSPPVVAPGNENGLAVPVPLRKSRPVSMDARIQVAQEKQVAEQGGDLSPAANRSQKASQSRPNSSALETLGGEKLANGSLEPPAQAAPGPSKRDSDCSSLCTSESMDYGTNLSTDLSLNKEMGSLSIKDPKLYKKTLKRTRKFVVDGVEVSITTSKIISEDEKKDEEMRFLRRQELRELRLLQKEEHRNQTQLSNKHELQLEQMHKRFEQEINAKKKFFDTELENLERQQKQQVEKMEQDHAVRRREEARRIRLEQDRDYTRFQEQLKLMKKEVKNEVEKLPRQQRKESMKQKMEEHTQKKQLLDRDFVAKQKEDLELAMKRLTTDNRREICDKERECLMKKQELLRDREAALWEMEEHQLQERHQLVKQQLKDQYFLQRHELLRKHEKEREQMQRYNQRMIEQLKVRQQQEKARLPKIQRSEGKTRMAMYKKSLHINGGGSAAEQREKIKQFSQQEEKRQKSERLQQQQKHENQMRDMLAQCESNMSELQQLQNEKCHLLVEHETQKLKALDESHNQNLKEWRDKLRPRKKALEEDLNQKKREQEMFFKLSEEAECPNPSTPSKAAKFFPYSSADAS
Chain of Receptor-interacting serine/threonine-protein kinase 2 (O43353 whole entry): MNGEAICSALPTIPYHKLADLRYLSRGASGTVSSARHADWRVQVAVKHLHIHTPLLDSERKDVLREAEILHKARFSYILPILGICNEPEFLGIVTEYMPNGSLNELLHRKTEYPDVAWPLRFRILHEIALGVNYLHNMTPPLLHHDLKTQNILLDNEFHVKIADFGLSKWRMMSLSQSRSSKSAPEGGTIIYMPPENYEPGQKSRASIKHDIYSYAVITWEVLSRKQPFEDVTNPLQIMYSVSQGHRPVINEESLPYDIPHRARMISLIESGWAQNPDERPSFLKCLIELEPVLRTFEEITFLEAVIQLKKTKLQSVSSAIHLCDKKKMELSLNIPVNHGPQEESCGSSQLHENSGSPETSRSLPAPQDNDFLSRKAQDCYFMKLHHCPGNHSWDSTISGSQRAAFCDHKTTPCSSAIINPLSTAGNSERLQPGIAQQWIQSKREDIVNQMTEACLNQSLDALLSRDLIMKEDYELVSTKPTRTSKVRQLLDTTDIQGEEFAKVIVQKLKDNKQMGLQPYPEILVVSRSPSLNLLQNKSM

% of control [1]: 100% | % of control [2]: 100%
Compound: CCN(CC)CCCCNc1ncc2cc(-c3cc(OC)cc(OC)c3)c(NC(=O)NC(C)(C)C)nc2n1

% of inhibition [3]: 1%
Compound: CN1Cc2nccc(-c3cn(C)nc3-c3ccc(F)cc3)c2C1=O

Compound: CC(C)(O)[C@H](F)CN1Cc2cc(NC(=O)c3cnn4cccnc34)c(N3CCOCC3)cc2C1=O
dTM [4]: 0.4 K

Compound: C=CC(=O)Nc1cc(-n2c(=O)ccc3cnc4ccc(-c5ccc(NS(C)(=O)=O)cc5)cc4c32)ccc1C
% of control ([5]; at 1 µM): 100% | % of control ([5]; at 10 µM): 100%

Compound: COCC(=O)NC/C=C/c1ccc2ncnc(Nc3ccc(Oc4ccc(C)nc4)c(C)c3)c2c1 [CP-724714]
% of control [6]: 0.5%

% of inhibition [7]: 65.9% | % of inhibition [8]: 11%
Compound: CC[C@@H]1[C@H](F)C(=O)N[C@@H]1COc1nccc2cc(C(N)=O)c(OC)cc12 [ZIMLOVISERTIB]

Compound: COc1cc(N(C)c2ccnc3ccc(C(F)(F)F)cc23)cc(OC)c1OC
% binding [9]: 98% | % binding [10]: 97% | % binding [11]: 70%

Compound: COc1cc(Nc2nc(C)cc(-c3cnn4nc(OC)ccc34)n2)cc(C(F)(F)F)c1
% of control [12]: 100%

Compound: COc1cc(C(=O)N2CC[C@@H](O)[C@@H](N)C2)cc2nc(-c3cc4ccccc4n3CC3CC3)n(C)c12
pXC50 [13]: 4.9 M

Compound: O=C(NOC[C@H](O)CO)c1ccc(F)c(F)c1Nc1ccc(I)cc1F
% of control [14]: 100% | % of control [15]: 69%

% of control [16]: 11% | % of inhibition [17]: 85.6%
Compound: CCc1ccccc1C(=O)Nc1n[nH]c2c(C)c(F)c(C3C(C#N)=C(C)N(C)C(C)=C3C#N)cc12 [BAY-3827]
